Laboratory results from patent US11186606B2, “Compositions and methods of modulating the immune response by activating alpha protein kinase 1” (Shanghai Yao Yuan Biotechnology Co., Ltd., priority 2017, dated 2021).

Key:
[1] = system: mouse bone marrow-derived macrophages; assay: Cxcl1 mRNA expression in mouse bone marrow-derived macrophages (qPCR); assay type: cell-based; conditions: 0.4 nM or 2 nM, 2.5 hours
Method: In these experiments, mouse bone marrow-derived macrophages were treated with 0.4 nM or 2 nM H1b-ADP for 2.5 hours and harvested for mRNA expression analysis of Cxcl1 by qPCR. […] Accordingly, very low doses of H1b-ADP, or an agonist thereof, may be used to enhance or potentiate an immune response in a local tissue.

ALPK1 [2] = target: T1, ALPK1 (Homo sapiens, UniProt Q96QP1); assay: Cell-free kinase assay of ALPK1-dependent phosphorylation of IκB; assay type: biochemical; conditions: 2 nM ALPK1, with or without ATP, 1 hour
Method: We next tested whether H1b-ADP-induced autophosphorylation of ALPK1 was effective to activate NFκB using phosphorylation of IκB as a marker for this activity. Phosphorylation assays were performed according to standard protocols and phosphorylated protein was detected by gel electrophoresis and Western blotting using an antibody that detects phosphorylated IκB. Briefly, assays were performed in a 20 μl volume at 25° C. in assay buffer (25 mM HEPES pH 7.5, 50 mM KCl, 0.1 mM EDTA, 0.1 mM EGTA, 2 mM DTT, 1.5 mM CaCl2, 10 mM MgCl2) containing 2 nM ALPK1 and H1b-ADP […] with or without ATP, or either ALPK1 alone or H1b-ADP alone, both in the presence of ATP. After 1 hour of incubation, the reaction was loaded to denaturing gel for protein electrophoresis and Western was performed to detect phosphorylation of IkB using p-IkB antibody (Abcam).

ALPK1 [3] = target: T1, ALPK1; assay: Cell-free kinase assay of ALPK1 autophosphorylation (Western, anti-phospho-threonine); assay type: biochemical; conditions: ALPK1 2 nM, ATP; H1b-ADP 10, 1, 0.2 nM; HBP and HMP-1bP 1, 10, 100 nM
Method: ALPK1 activation results in its autophosphorylation. Accordingly, we next asked whether the binding of H1b-ADP to ALPK1 was sufficient to induce ALPK1 autophosphorylation. Phosphorylation assays were performed according to standard protocols. Briefly, ALPK1 was incubated (2 nM, 25° C., 1 h) in assay buffer (20 al, 25 mM HEPES pH 7.5, 50 mM KCl, 0.1 mM EDTA, 0.1 mM EGTA, 2 mM DTT, 1.5 mM CaCl2, 10 mM MgCl2) with ATP and chemically synthesized HBP, HMP-1bP, or H1b-ADP followed by denaturing gel electrophoresis and Western analysis with an anti-phospho-threonine antibody (CST) to detect autophosphorylation of ALPK1. […] The range of concentrations of HBP and HMP-1bP used in this assay (1 nM, 10 nM, 100 nM) was 10-fold higher than that used for H1b-ADP.

ALPK1 [4] = target: T1, ALPK1; assay: IL-8 and TNFα mRNA expression in HEK293 cells with control or ALPK1-directed siRNA; assay type: cell-based; parameters: ALPK1-directed small interfering RNA (siRNA) to silence ALPK1 expression in HEK293 cells; endogenous in cells; host or cells: HEK293
Method: To test whether HBP, HMP-1bP, and H1b-ADP were able to induce cytokine expression in an ALPK1 dependent manner, we used an ALPK1-directed small interfering RNA (siRNA) to silence ALPK1 expression in HEK293 cells. Cells were plated (1×10^4 cells/well) into 96-well plates and transfected with either control siRNA or ALPK1-directed siRNA according to the manufacturer's protocols (Lipofectamine™ RNAiMax™, Invitrogen 13778075). Following 2 days of culture, either (1) HBP (500 uM, 100 uM, 20 uM, FIG. 2A-2B) (2) HMP-1bP (500 uM, 100 uM, FIG. 3A-3B), (3) H1b-ADP (100 nM, 20 nM, 4 nM, 0.8 nM, FIG. 4A-4B) was added to culture medium and cells were harvested 4 hours later.

TLR-9 = target: T2, TLR-9 (Homo sapiens, UniProt Q9NR96); conditions: US 20100016250 by Nagata et al.; cited from earlier work
T2 sequence (Q9NR96 26-1032): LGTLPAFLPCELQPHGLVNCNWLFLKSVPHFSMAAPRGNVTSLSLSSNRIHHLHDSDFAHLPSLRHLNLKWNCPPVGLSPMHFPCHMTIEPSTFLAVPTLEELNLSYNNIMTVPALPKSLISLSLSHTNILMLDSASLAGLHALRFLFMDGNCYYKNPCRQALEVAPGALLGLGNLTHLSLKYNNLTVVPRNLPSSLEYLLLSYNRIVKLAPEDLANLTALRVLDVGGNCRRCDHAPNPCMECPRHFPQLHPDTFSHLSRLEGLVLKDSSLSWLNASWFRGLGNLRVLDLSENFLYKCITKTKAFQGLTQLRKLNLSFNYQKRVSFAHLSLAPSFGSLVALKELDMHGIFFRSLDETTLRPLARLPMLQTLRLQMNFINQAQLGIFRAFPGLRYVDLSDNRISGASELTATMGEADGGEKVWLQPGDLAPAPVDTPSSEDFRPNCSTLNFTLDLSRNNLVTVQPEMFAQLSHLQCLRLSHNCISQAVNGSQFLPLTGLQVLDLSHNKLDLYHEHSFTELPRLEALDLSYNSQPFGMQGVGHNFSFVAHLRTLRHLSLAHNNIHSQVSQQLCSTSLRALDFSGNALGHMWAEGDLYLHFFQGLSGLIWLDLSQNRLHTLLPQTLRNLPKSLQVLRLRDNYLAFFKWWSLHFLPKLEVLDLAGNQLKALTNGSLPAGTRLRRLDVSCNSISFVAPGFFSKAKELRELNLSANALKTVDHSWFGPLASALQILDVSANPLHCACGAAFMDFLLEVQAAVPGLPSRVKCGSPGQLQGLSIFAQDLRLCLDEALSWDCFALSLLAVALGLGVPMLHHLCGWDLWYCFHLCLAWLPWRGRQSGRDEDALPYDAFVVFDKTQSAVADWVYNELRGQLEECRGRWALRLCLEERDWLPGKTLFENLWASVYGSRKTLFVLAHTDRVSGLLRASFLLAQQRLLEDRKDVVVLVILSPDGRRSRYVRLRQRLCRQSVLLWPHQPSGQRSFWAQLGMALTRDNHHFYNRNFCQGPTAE

[5] = 4 hours, control vs ALPK1-directed siRNA

T1 sequence (Q96QP1 whole entry): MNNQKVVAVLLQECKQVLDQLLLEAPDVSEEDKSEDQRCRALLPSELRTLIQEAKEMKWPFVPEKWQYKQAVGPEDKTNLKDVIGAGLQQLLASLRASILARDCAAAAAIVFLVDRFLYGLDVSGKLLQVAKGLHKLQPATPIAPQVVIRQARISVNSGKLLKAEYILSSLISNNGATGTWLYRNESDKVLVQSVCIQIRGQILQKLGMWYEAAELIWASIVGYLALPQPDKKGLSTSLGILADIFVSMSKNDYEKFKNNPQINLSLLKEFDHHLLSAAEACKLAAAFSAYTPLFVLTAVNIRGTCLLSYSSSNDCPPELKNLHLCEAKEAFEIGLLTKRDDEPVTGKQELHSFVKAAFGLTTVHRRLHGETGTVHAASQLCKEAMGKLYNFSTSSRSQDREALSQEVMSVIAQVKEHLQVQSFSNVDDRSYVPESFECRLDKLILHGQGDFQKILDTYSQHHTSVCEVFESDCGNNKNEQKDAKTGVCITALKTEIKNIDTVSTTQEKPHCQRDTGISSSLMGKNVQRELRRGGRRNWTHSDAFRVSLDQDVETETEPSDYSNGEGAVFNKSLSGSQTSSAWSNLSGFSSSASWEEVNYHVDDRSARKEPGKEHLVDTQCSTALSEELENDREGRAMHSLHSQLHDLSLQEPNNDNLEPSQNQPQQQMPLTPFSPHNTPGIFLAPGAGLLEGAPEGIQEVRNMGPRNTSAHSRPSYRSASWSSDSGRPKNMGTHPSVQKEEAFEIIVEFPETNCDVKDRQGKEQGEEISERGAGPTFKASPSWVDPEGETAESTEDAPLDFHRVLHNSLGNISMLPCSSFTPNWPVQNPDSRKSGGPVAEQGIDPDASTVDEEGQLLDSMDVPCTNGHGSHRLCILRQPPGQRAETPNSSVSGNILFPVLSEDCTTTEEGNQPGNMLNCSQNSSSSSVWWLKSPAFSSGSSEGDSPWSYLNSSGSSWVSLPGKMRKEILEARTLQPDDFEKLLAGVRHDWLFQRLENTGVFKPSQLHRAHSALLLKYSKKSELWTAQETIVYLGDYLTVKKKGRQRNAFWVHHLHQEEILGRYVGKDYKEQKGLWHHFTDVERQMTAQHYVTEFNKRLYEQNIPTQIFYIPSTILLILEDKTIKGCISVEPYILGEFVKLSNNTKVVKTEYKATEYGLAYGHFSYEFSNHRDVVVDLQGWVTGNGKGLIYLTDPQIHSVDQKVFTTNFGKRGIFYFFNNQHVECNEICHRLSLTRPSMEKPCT

Nc1ncnc2c1ncn2[C@@H]1O[C@H](COP(=O)(O)OP(=O)(O)O[C@@H]2O[C@H]([C@H](O)CO)[C@@H](O)[C@H](O)[C@@H]2O)[C@@H](O)[C@H]1O [Compound H1b-ADP, D-glycero-D-manno-heptose-1β-ADP]
Cxcl1 mRNA expression, fold change over non-treated control [1]: dose-dependent response | IkB phosphorylation (ALPK1 [2]): detected only in the presence of both ALPK1 and H1b-ADP in the presence of ATP | autophosphorylation of ALPK1 (ALPK1 [3]): detected only in the presence of H1b-ADP | IL-8 mRNA expression (ALPK1 [4]; [5]): increased in an ALPK1-dependent manner | TNFα mRNA expression (ALPK1 [4]; [5]): increased in an ALPK1-dependent manner | concentration at which IL-8 and TNFα mRNA expression were induced (ALPK1 [4]; FIG. 5): 10 nM | TLR-9 agonist activity (TLR-9): TLR-9 agonist
